The subject of one assay is Diabetic KKA^y mice. In words: Wound healing of surgical wounds in diabetic KKA^y mice. It counts as in vivo. The conditions noted are these: oral twice daily 200 mg/kg/day for 3.5 days. The protocol:
Diabetic KKA^y mice underwent surgery during anesthesia whereby a catheter was inserted in the jugularis vein. Oral treatment twice daily (200 mg/kg/day) with the 11β-HSD1 inhibitor BVT.2733 (disclosed as Example 172A in WO 01/90090), or vehicle started 4–6 days later and continued for 3.5 days.
Advantageous effects on wound healing of the surgical wounds were observed during treatment.

For assay [1], the target named is T1, human 11-β-hydroxysteroid dehydrogenase type-1 enzyme (11-β-HSD1) (Homo sapiens, UniProt P28845).
T1 construct: made in house; host or cells: Pichia pastoris
T1 sequence (P28845 whole entry): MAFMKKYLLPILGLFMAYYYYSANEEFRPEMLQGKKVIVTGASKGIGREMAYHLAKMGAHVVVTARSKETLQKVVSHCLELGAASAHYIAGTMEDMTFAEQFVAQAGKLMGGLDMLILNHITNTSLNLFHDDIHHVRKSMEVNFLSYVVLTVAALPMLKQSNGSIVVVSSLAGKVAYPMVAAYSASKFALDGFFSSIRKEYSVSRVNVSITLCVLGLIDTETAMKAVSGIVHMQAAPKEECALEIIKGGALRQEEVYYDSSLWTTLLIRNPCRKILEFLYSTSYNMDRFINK
In words: Scintillation proximity assay: human 11-β-HSD1 enzyme assay. It counts as biochemical. The conditions noted are these: Ki calculated from IC50 (Cheng Prushoff). The text has this:
[1,2(n)-^3H]-cortisone was purchased from Amersham Pharmacia Biotech. Anti-cortisol monoclonal mouse antibody, clone 6D6.7 was obtained from Immunotech and Scintillation proximity assay (SPA) beads coated with monoclonal antimouse antibodies were from Amersham Pharmacia Biotech. NADPH, tetrasodium salt was from Calbiochem and glucose-6-phosphate (G-6-P) was supplied by Sigma. The human 11-β-hydroxysteroid dehydrogenase type-1 enzyme (11-β-HSD1) was expressed in Pichia pastoris. 18-β-glycyrrhetinic acid (GA) was obtained from Sigma. The serial dilutions of the compounds were performed on a Tecan Genesis RSP 150. […]
The multiplication of plates was done on a WallacQuadra. The amount of the product [^3H]-cortisol, bound to the beads was determined in a Packard, Top Count microplate liquid scintillation counter. […]
The plates were covered with plastic film and incubated on a shaker for 30 minutes, at room temperature, before counting. The amount of [^3H]-cortisol, bound to the beads was determined in a microplate liquid scintillation counter.
The calculation of the Ki values for the inhibitors was performed by use of Activity Base. The Ki value is calculated from IC50 and the Km value is calculated using the Cheng Prushoff equation (with reversible inhibition that follows the Michaelis-Menten equation): […] [Cheng, Y. C.; Prushoff, W. H. Biochem. Pharmacol. 1973, 22, 3099–3108]. […]

In assay [2] the test system is hepatic insulin sensitivity. As to conditions: healthy human volunteers; Walker et al. 1995; cited from earlier work.
In the next assay the test system is intraocular pressure. The conditions noted are these: normal subjects; Raus et al 2001; cited from earlier work.

As to BVT.2733, in the assay with Diabetic KKA^y mice (jugular catheter surgery, vehicle 58%), the “animals showing complications during treatment period” value is 24%. Moreover, in the assay on Diabetic KKA^y mice (compared to control mice), the “effects on wound healing of the surgical wounds” value is on record as “less pus in the wound, as well as better wound strength”.

As to `CC(C)c1nnc(NS(=O)(=O)c2ccc(Oc3ccccc3)cc2)s1` [Example 244, N-(5-isopropyl-1,3,4-thiadiazol-2-yl)-4-phenoxybenzenesulfonamide], the Ki in assay [1] was 219 nM.

As to `Cc1ccc([N+](=O)[O-])cc1S(=O)(=O)Nc1nc(C(C)C)ns1` [Example 80, N-(3-isopropyl-1,2,4-thiadiazol-5-yl)-2-methyl-5-nitrobenzenesulfonamide], in assay [1], the Ki is 321 nM.

On to `CC1(C)[C@@H](OC(=O)CCC(=O)O)CC[C@]2(C)[C@H]3C(=O)C=C4[C@@H]5C[C@@](C)(C(=O)O)CC[C@]5(C)CC[C@@]4(C)[C@]3(C)CC[C@@H]12` [carbenoxolone], for which the hepatic insulin sensitivity entry in assay [2] is reported as “improved”. In addition, in the assay on intraocular pressure, the “reduction of intraocular pressure” value is listed as 20%.

The values are drawn from patent publication US7173030B2, “Inhibitors of 11-β-hydroxy steroid dehydrogenase type 1” (Biovitrum AB, priority 2003, dated 2007).
